Laboratory results taken from ChEMBL document CHEMBL4818987, “Recent advances of podophyllotoxin/epipodophyllotoxin hybrids in anticancer activity, mode of action, and structure-activity relationship: An update (2010-2020)” (Eur J Med Chem, 2020).

Legend:
K562 [1] = assay: Cytotoxicity against human K562 cells incubated for 72 hrs by CCK8 assay; type: functional, cell-based; settings: K562, 72 h
K562/Adr [2] = assay: Cytotoxicity against human K562/ADR cells incubated for 72 hrs by CCK8 assay; type: functional, cell-based
K562/Adr [3] = assay: Potency index, ratio of doxorubicin IC50 to compound IC50 for human K562/ADR cells; type: functional
[4] = Resistance index, ratio of IC50 for human K562/ADR cells to IC50 for human K562 cells; type: functional
K562 [5] = assay: Potency index, ratio of doxorubicin IC50 to compound IC50 for human K562 cells; type: functional
A549 [6] = assay: Antiproliferative activity against human A549 cells incubated for 3 days by MTT assay; type: functional, cell-based; settings: A549, 72 h
HepG2 [7] = assay: Antiproliferative activity against human HepG2 cells incubated for 3 days by MTT assay; type: functional, cell-based; settings: HepG2, 72 h
HCT-116 = assay: Antiproliferative activity against human HCT116 cells incubated for 3 days by MTT assay; type: functional, cell-based; settings: HCT-116, 72 h
K562/A02 [8] = assay: Antiproliferative activity against human K562/A02 cells by MTT assay; type: functional, cell-based
HeLa [9] = assay: Antiproliferative activity against human HeLa cells by MTT assay; type: functional, cell-based
MCF7 [10] = assay: Antiproliferative activity against human MCF7 cells incubated for 48 hrs by MTT assay; type: functional, cell-based; settings: MCF7, 48 h
Huh-7 = assay: Antiproliferative activity against human Huh7 cells incubated for 48 hrs by MTT assay; type: functional, cell-based; settings: Huh-7, 48 h
A549 [11] = assay: Antiproliferative activity against human A549 cells incubated for 48 hrs by MTT assay; type: functional, cell-based; settings: A549, 48 h
BGC-823 = assay: Antiproliferative activity against human BGC-823 cells incubated for 48 hrs by MTT assay; type: functional, cell-based; settings: BGC-823, 48 h
HeLa [12] = assay: Antiproliferative activity against human HeLa cells incubated for 48 hrs by MTT assay; type: functional, cell-based
HepG2 [13] = assay: Antiproliferative activity against human HepG2 cells incubated for 24 hrs by MTT assay; type: functional, cell-based; settings: HepG2, 24 h
HeLa [14] = assay: Antiproliferative activity against human HeLa cells incubated for 24 hrs by MTT assay; type: functional, cell-based
MCF7 [15] = assay: Antiproliferative activity against human MCF7 cells incubated for 24 hrs by MTT assay; type: functional, cell-based; settings: MCF7, 24 h
A549 [16] = assay: Antiproliferative activity against human A549 cells incubated for 24 hrs by MTT assay; type: functional, cell-based; settings: A549, 24 h
L02 = assay: Cytotoxicity against human L02 cells; type: cell-based
SMMC-7721 = assay: Antiproliferative activity against human SMMC-7721 cells incubated for 48 hrs by MTT assay; type: functional, cell-based; settings: SMMC-7721, 48 h
HL-60 = assay: Antiproliferative activity against human HL-60 cells incubated for 48 hrs by MTT assay; type: functional, cell-based; settings: HL-60, 48 h
A549 [17] = assay: Antiproliferative activity against human A549 cells incubated for 72 hrs by MTT assay; type: functional, cell-based; settings: A549, 72 h
SW480 = assay: Antiproliferative activity against human SW480 cells incubated for 48 hrs by MTT assay; type: functional, cell-based; settings: SW480, 48 h
Calu-1 = assay: Antiproliferative activity against human Calu-1 cells incubated for 24 hrs by MTT assay; type: functional, cell-based; settings: Calu-1, 24 h
Vero = assay: Cytotoxicity against African green monkey Vero cells; type: cell-based; settings: Chlorocebus sabaeus
K562/A02 [18] = assay: Cytotoxicity against human K562/A02 cells by SRB assay; type: functional, cell-based

COc1cc([C@@H]2c3cc4c(cc3[C@@H](OC(=O)/C=C/c3ccccc3)[C@H]3COC(=O)[C@H]23)OCO4)cc(OC)c1OC
IC50 (K562 [1]): 11 nM | IC50 (K562/Adr [2]): 11 nM | Ratio IC50 (K562/Adr [3]): 2.2 | Ratio IC50 [4]: 1.1 | Ratio IC50 (K562 [5]): 2.2

COc1cc([C@@H]2c3cc4c(cc3[C@@H](NC(=S)NC(=O)c3ccc(Cl)cc3)[C@H]3COC(=O)[C@H]23)OCO4)cc(OC)c1OC
IC50 (A549 [6]): 100 nM | IC50 (HepG2 [7]): 100 nM | IC50 (HCT-116): 100 nM

COc1cc([C@@H]2c3cc4c(cc3[C@@H](NC(=S)NC(=O)c3cccs3)[C@H]3COC(=O)[C@H]23)OCO4)cc(OC)c1OC
IC50 (A549 [6]): 100 nM | IC50 (HepG2 [7]): 100 nM | IC50 (HCT-116): 100 nM

COc1cc([C@@H]2c3cc4c(cc3[C@@H](NC(=S)NC(=O)c3ccc(F)cc3)[C@H]3COC(=O)[C@H]23)OCO4)cc(OC)c1OC
IC50 (A549 [6]): 100 nM | IC50 (HepG2 [7]): 100 nM | IC50 (HCT-116): 100 nM

C=CC(=O)O[C@@H]1c2cc3c(cc2[C@@H](c2cc(OC)c(OC)c(OC)c2)[C@H]2C(=O)OC[C@@H]21)OCO3
IC50 (K562 [1]): 11 nM | IC50 (K562/Adr [2]): 11 nM | Ratio IC50 (K562/Adr [3]): 2.2 | Ratio IC50 [4]: 1.1 | Ratio IC50 (K562 [5]): 2.2

COc1cc([C@@H]2c3cc4c(cc3[C@@H](NCc3cc5cc(F)ccc5[nH]3)[C@H]3COC(=O)[C@H]23)OCO4)cc(OC)c1OC
IC50 (K562/A02 [8]): 100 nM | IC50 (HeLa [9]): 100 nM

COc1cc([C@@H]2c3cc4c(cc3[C@@H](NC(=S)NC(=O)c3ccccc3Br)[C@H]3COC(=O)[C@H]23)OCO4)cc(OC)c1OC
IC50 (A549 [6]): 100 nM | IC50 (HepG2 [7]): 100 nM | IC50 (HCT-116): 100 nM

COc1cc([C@@H]2c3cc4c(cc3[C@@H](NC(=S)NC(=O)c3cccc5ccccc35)[C@H]3COC(=O)[C@H]23)OCO4)cc(OC)c1OC
IC50 (A549 [6]): 100 nM | IC50 (HepG2 [7]): 100 nM | IC50 (HCT-116): 100 nM

COc1cc([C@@H]2c3cc4c(cc3[C@@H](Nc3ncccc3C)[C@H]3COC(=O)[C@H]23)OCO4)cc(OC)c1OC
IC50 (MCF7 [10]): 60 nM | IC50 (Huh-7): 60 nM | IC50 (A549 [11]): 60 nM | IC50 (BGC-823): 60 nM | IC50 (HeLa [12]): 60 nM

COc1ccc2[nH]c(CN[C@@H]3c4cc5c(cc4[C@@H](c4cc(OC)c(OC)c(OC)c4)[C@H]4C(=O)OC[C@@H]43)OCO5)cc2c1
IC50 (K562/A02 [8]): 100 nM | IC50 (HeLa [9]): 100 nM

COc1cc([C@@H]2c3cc4c(cc3[C@@H](Nc3ncccc3C)[C@H]3COC(=O)[C@H]23)OCO4)cc(OC)c1O
IC50 (MCF7 [10]): 60 nM | IC50 (Huh-7): 60 nM | IC50 (A549 [11]): 60 nM | IC50 (BGC-823): 60 nM | IC50 (HeLa [12]): 60 nM

COc1cc([C@@H]2c3cc4c(cc3[C@@H](NC(=S)NC(=O)c3cccc(C)c3)[C@H]3COC(=O)[C@H]23)OCO4)cc(OC)c1OC
IC50 (A549 [6]): 100 nM | IC50 (HepG2 [7]): 100 nM | IC50 (HCT-116): 100 nM

COc1cc([C@@H]2c3cc4c(cc3[C@@H](NC(=S)NC(=O)c3cccc(Cl)c3)[C@H]3COC(=O)[C@H]23)OCO4)cc(OC)c1OC
IC50 (A549 [6]): 100 nM | IC50 (HepG2 [7]): 100 nM | IC50 (HCT-116): 100 nM

COc1cc([C@@H]2c3cc4c(cc3[C@@H](NC(=S)NC(=O)c3ccccc3C)[C@H]3COC(=O)[C@H]23)OCO4)cc(OC)c1OC
IC50 (A549 [6]): 100 nM | IC50 (HepG2 [7]): 100 nM | IC50 (HCT-116): 100 nM

COc1cc([C@@H]2c3cc4c(cc3[C@@H](NC(=S)NC(=O)c3ccccc3Cl)[C@H]3COC(=O)[C@H]23)OCO4)cc(OC)c1OC
IC50 (A549 [6]): 100 nM | IC50 (HepG2 [7]): 100 nM | IC50 (HCT-116): 100 nM

COc1ccc(-c2nnc(SCC(=O)O[C@H]3c4cc5c(cc4[C@@H](c4cc(OC)c(OC)c(OC)c4)[C@H]4C(=O)OC[C@@H]43)OCO5)o2)cc1
IC50 (HepG2 [13]): 2540 nM | IC50 (HeLa [14]): 2540 nM | IC50 (MCF7 [15]): 2540 nM | IC50 (A549 [16]): 2540 nM | IC50 (L02): 92.4 µM

CCCC(=O)OC[C@H]1O[C@H](OCc2cn([C@@H]3c4cc5c(cc4[C@@H](c4cc(OC)c(O)c(OC)c4)[C@H]4C(=O)OC[C@@H]43)OCO5)nn2)[C@H](OC(=O)CCC)[C@@H](OC(=O)CCC)[C@H]1OC(=O)CCC
IC50 (SMMC-7721): 490 nM | IC50 (HL-60): 490 nM | IC50 (MCF7 [10]): 490 nM | IC50 (A549 [17]): 490 nM | IC50 (SW480): 490 nM

COc1cccc(/C=C/C(=O)O[C@H]2c3cc4c(cc3[C@@H](c3cc(OC)c(OC)c(OC)c3)[C@H]3C(=O)OC[C@@H]32)OCO4)c1
IC50 (K562 [1]): 11 nM | IC50 (K562/Adr [2]): 11 nM | Ratio IC50 [4]: 1.1

COc1ccc(/C=C/C(=O)O[C@@H]2c3cc4c(cc3[C@@H](c3cc(OC)c(OC)c(OC)c3)[C@H]3C(=O)OC[C@@H]32)OCO4)cc1OC
IC50 (K562 [1]): 11 nM | IC50 (K562/Adr [2]): 11 nM | Ratio IC50 (K562/Adr [3]): 2.2 | Ratio IC50 [4]: 1.1 | Ratio IC50 (K562 [5]): 2.2

COc1cc([C@@H]2c3cc4c(cc3[C@H](OC(=O)/C=C/c3ccco3)[C@H]3COC(=O)[C@H]23)OCO4)cc(OC)c1OC
IC50 (K562 [1]): 11 nM | IC50 (K562/Adr [2]): 11 nM | Ratio IC50 [4]: 1.1

COc1cc([C@@H]2c3cc4c(cc3[C@@H](OC(=O)/C=C/c3ccc([N+](=O)[O-])cc3)[C@H]3COC(=O)[C@H]23)OCO4)cc(OC)c1OC
IC50 (K562 [1]): 11 nM | IC50 (K562/Adr [2]): 11 nM | Ratio IC50 (K562/Adr [3]): 2.2 | Ratio IC50 [4]: 1.1 | Ratio IC50 (K562 [5]): 2.2

COc1cc([C@@H]2c3cc4c(cc3[C@H](OC(=O)CSc3nnc(-c5ccc(Br)cc5)o3)[C@H]3COC(=O)[C@H]23)OCO4)cc(OC)c1OC
IC50 (HepG2 [13]): 2540 nM | IC50 (HeLa [14]): 2540 nM | IC50 (MCF7 [15]): 2540 nM | IC50 (A549 [16]): 2540 nM | IC50 (L02): 79.6 µM

COc1cc([C@@H]2c3cc4c(cc3[C@@H](NC(=S)NC(=O)c3ccccc3I)[C@H]3COC(=O)[C@H]23)OCO4)cc(OC)c1OC
IC50 (A549 [6]): 100 nM | IC50 (HepG2 [7]): 100 nM | IC50 (HCT-116): 100 nM

COc1cc([C@@H]2c3cc4c(cc3[C@@H](OC(=O)/C=C/c3ccco3)[C@H]3COC(=O)[C@H]23)OCO4)cc(OC)c1OC
IC50 (K562 [1]): 11 nM | IC50 (K562/Adr [2]): 11 nM | Ratio IC50 (K562/Adr [3]): 2.2 | Ratio IC50 [4]: 1.1 | Ratio IC50 (K562 [5]): 2.2

COc1ccc2c(c1)cc(/C=N/[C@@H]1c3cc4c(cc3[C@@H](c3cc(OC)c(OC)c(OC)c3)[C@H]3C(=O)OC[C@@H]31)OCO4)n2Cc1ccccc1F
IC50 (HeLa [9]): 650 nM

COc1cc([C@@H]2c3cc4c(cc3[C@@H](N)[C@H]3COC(=O)[C@H]23)OCO4)cc(OC)c1OC [4BETA-NH2-PODOPHYLLOTOXIN]
IC50 (A549 [6]): 100 nM | IC50 (HepG2 [7]): 100 nM | IC50 (HCT-116): 100 nM

COc1ccc(/C=C\c2cc(OC)c(OC)c(OC)c2)cc1O [COMBRETASTATIN A4]
IC50 (Calu-1): 2780 nM | IC50 (HepG2 [13]): 3450 nM | IC50 (HeLa [14]): 2780 nM | IC50 (MCF7 [15]): 3450 nM | IC50 (A549 [16]): 2780 nM | IC50 (Vero): 2560 nM | IC50 (L02): 4.23 µM

COc1cccc2c1C(=O)c1c(O)c3c(c(O)c1C2=O)C[C@@](O)(C(=O)CO)C[C@@H]3O[C@H]1C[C@H](N)[C@H](O)[C@H](C)O1 [DOXORUBICIN]
IC50 (K562/Adr [2]): 220 nM | GI50 (K562/A02 [18]): 14.3 µM
